# According to patent publication US6706509B2, “Oncoprotein protein kinase” (The Regents of the University of California, priority 1993, dated 2004):
# How the values were obtained:
# Format in all cases: cell-based, human
# [1] = tested on: JNK (55 kD and 46 kD forms); assay: In-gel kinase assay of JNK in Jurkat whole cell extracts; settings: for JNK activation, in-gel kinase assay, agent alone: TPA 50 ng/ml or A23187 1 μg/ml
# Protocol: In-gel kinase assay was performed as described by Kameshita and Fujisawa, Anal. Biochem., 183:139, (1989) with slight modifications. Briefly, c-Jun binding proteins were isolated from whole cell extracts by using GSH-agarose beads containing 80 μg GST-cJun as described above. Proteins were eluted in Laemlli sample buffer and resolved on 10% SDS-polyacrylamide gel, which was polymerized in the absence or presence of GST-cJun (40 μg/ml). After electrophoresis, the gel was washed twice, 30 minutes each time with 100 ml of 20% 2-propanol, 50 mM HEPES pH 7.6 to remove SDS. After the gel was washed twice, 30 minutes each time, with 100 ml of buffer A (50 mM HEPES pH 7.6, 5 mM β-mercaptoethanol), it was incubated in 200 ml of 6M urea in buffer A at room temperature for 1 hr, followed by serial incubations in buffer A containing 0.05% Tween 20 and either 3M, 1.5M or 0.75M urea. After the gel was washed several times, 1 hr each time, with 100 ml of buffer A containing 0.05% Tween 20 at 4° C., it was incubated with kinase buffer containing 50 μM ATP and 5 μCi/ml γ-^32P-ATP at 30° C. for 1 hour. After the reaction, the gel was washed with 100 ml of 5% tricholoroacetic acid and 1% sodium pyrophosphate at room temperature several times, followed by drying and autoradiography.
# JNK exists in two forms, 46 kD and 55 kD in size, both of which are activated by external stimuli (Hibi, et al., supra, 1993; Deng, et al., supra, 1993). […] Whole cell extracts (WCE) of Jurkat cells incubated with TPA (T, 50 ng/ml), A23187 (A, 1 μg/ml) or CsA (100 ng/ml) for 15 minutes, alone or in combination, were separated by SDS-PAGE (100 μg protein/lane) on gels that were cast in the absence or presence of GST-cJun (1-223). The gels were subjected to renaturation protocol and incubated in kinase buffer containing γ-^32P-ATP. The protein bands corresponding to the 55 kD and 46 kD forms of JNK are indicated.
# The regulation of JNK in response to T cell activation with anti-CD3 and anti-CD28 antibodies was examined. Jurkat cells (1×10^7) were incubated for 15 minutes with either normal mouse serum, 1 μg/ml anti-CD3 and/or 2 μg/ml anti-CD28, in the absence or presence of 100 ng/ml CsA, as indicated. WCE were prepared and 100 μg samples were analyzed for JNK activation using the in-gel kinase assay, as described above.
# jun-B = assay: Northern blot of jun-B expression in Jurkat cells; settings: 40 minutes; for effect on jun-B induction by TPA: A23187 1 μg/ml or CsA 100 ng/ml
# Protocol: Exponentially growing Jurkat cells (10^6/ml) grown in complete RPMI medium was pretreated with CsA for 15 minutes when applicable, then subjected to various treatments for another 40 minutes. Total cytoplasmic RNA was extracted as previously described (Angel, et al., Cell, 49:729-739, 1987). 10 μg RNA was denatured by incubating with glyoxal for 60 minutes at 55° C. and fractionated on a 1% agarose gel in phosphate buffer. The fractionated RNA was blotted to Zetabind Nylon membrane (CUNO Labs) and hybridized to ^32P-labelled cDNA probes specific for c-jun, jun-B, jun-D, c-fos, α-tubulin and IL-2.
# During the first stage of T lymphocyte activation, early response genes are rapidly included (Crabtree, Science, 243:355,361, 1989; Zipfel, et al., Mol Cell Bio., 9:1041-1048, 1989). Induction of jun and fos genes during activation of the Jurkat T cell line was investigated. Two different co-stimulatory paradigms were used, one employing TPA and the Ca^2+ ionophore A23187, and the second based on simultaneous stimulation of the TCR complex with an antibody to its CD3 component (OKT3; Van Wauwe, et al., J. Immunol., 124:2708-2713, 1980) and stimulation of the CD28 auxiliary receptor with an anti-CD28 antibody (9.3; Hansen, et al., Immunogenetics, 10:247-260, 1993; June, et al., Immunol. Today, 11:211-216, 1990). Total cytoplasmic RNA was extracted from Jurkat cells that were incubated with 50 ng/ml TPA (T), 1 μg/ml A23187 (A) or 100 ng/ml cyclosporin A (CsA) for 40 minutes, either alone or in combinations, as indicated. After fractionation of 10 μg samples on an agarose gel and transfer to nylon membrane, the level of c-jun, jun-B, jun-D, c-fos and α-tubulin expression was determined by hybridization to random primed cDNA probes.
# JNK = assay: Solid-state phosphorylation assay of JNK on GSTcJun(1-223)-GSH agarose beads, Jurkat cells; settings: for JNK activation together with suboptimal dose of TPA: A23187, anti-CD3 or anti-CD28 plus suboptimal TPA; for JNK activation, solid-state assay, agent alone: TPA 50 ng/ml or A23187 1 μg/ml, 15 minutes
# Protocol: Exponentially growing cells were stimulated for the indicated times and hypotonic detergent cellular extracts were prepared as described (Hibi, et al., Genes and Dev., supra, 1993). The solid-state phosphorylation assay for measuring JNK activity was performed by incubated extracts with GSTcJun(1-223)-GSH agarose beads as described (Hibi, et al., supra., 1993) and as in Example 2. ERK1 and 2 activity was assayed by an immunecomplex kinase assay using MBP as a substrate (Minden, et al., Nature, 1993).
# JNK can be retained on GSTcJun-glutathione (GSH) agarose affinity resin and its kinase activity measured by phosphorylation of GSTcJun. WCE (50 μg) of Jurkat cells treated as described above were incubated with 5 μl of GSH agarose beads coated with 10 μg GST-cJun (1-223) for 12 hours at 4° C. After extensive washing, the beads were incubated in kinase buffer containing γ-^32P-ATP for 20 minutes at 30° C., after which the proteins were dissociated by incubation in SDS sample buffer and separated by SDS-PAGE (FIG. 13B). The 49 kD band corresponds to GST-cJun (1-223). The faster migrating bands are degradation products (Hibi, et al., supra, 1993).
# WCE (50 μg) of Jurkat cells treated as described above were incubated with GSTcJun(1-223)-GSH agarose beads and assayed for JNK activity using the solid-state kinase assay. The same WCE (20 μg) were immunoprecipitated with anti-ERK2 antibodies and assayed for MBP-kinase activity.
# WCE (50 μg) of Jurkat cells treated as described in Panel A with various stimuli alone or their combinations were incubated with GSTcJun(1-223)-GSH agarose beads and assayed for JNK activity using solid-state kinase assay. The same samples (20 μg) were also assayed for MBP-kinase activity as described in FIG. 16B.
compound,measurement,setting,value
CNc1ccc2oc(C[C@H]3O[C@@]4(CC[C@H]3C)O[C@H]([C@H](C)C(=O)c3ccc[nH]3)[C@H](C)C[C@H]4C)nc2c1C(=O)O [A23187],"JNK activation, in-gel kinase assay, costimulation with TPA","[1]; A23187 1 μg/ml plus TPA 50 ng/ml, 15 minutes",potentiated its activation by TPA
same,"JNK activation, in-gel kinase assay, agent alone","[1]; Jurkat, 15 minutes",did not activate JNK
same,effect on jun-B induction by TPA,jun-B,not affected
same,"JNK activation, solid-state assay, costimulation with TPA",JNK; A23187 1 μg/ml plus TPA 50 ng/ml,strongly potentiated
same,JNK activation together with suboptimal dose of TPA,JNK; Jurkat,strong synergistic activation of JNK
same,"JNK activation, solid-state assay, agent alone",JNK; Jurkat,had no effect
CCCCCCCCCCCCCC(=O)O[C@@H]1[C@@H](C)[C@@]2(O)[C@@H](C=C(CO)C[C@]3(O)C(=O)C(C)=C[C@@H]23)[C@H]2C(C)(C)[C@]12OC(C)=O [TPA],"JNK activation, in-gel kinase assay, agent alone","[1]; Jurkat, 15 minutes",activated
same,"jun-B expression, agent alone",jun-B; TPA 50 ng/ml,induced
same,"JNK activation, suboptimal dose of TPA by itself",JNK; Jurkat,does not lead to JNK activation
same,"JNK activation, solid-state assay, agent alone",JNK; Jurkat,activation of JNK
anti-CD3: anti-CD3 monoclonal antibody OKT3,"JNK activity, in-gel kinase assay, simultaneous incubation with both antibodies","[1]; Jurkat, 1 μg/ml anti-CD3 and 2 μg/ml anti-CD28, 15 minutes",strong synergistic activation of both forms
same,JNK activation together with suboptimal dose of TPA,JNK; Jurkat,strong synergistic activation of JNK
same,"JNK activation, combined treatment with A23187","JNK; Jurkat, anti-CD3 or anti-CD28 plus A23187",efficiently activated
cyclosporin A [CsA],"JNK activation, in-gel kinase assay, CsA added to TPA+A23187","[1]; CsA 100 ng/ml, 15 minutes",blocked this costimulatory effect
same,effect on jun-B induction by TPA,jun-B,not affected
same,"JNK activation, solid-state assay, CsA added to TPA+A23187",JNK; CsA 100 ng/ml,inhibited
same,"JNK activation by suboptimal TPA+A23187, effect of CsA",JNK; Jurkat,completely inhibited
same,"JNK activation by anti-CD3+anti-CD28, effect of CsA","JNK; Jurkat, CsA 100 ng/ml",partially attenuated this effect
